“And” between values parts separate entries of the source, which are not always exact repeats. Equal values may be shown once. Each block holds one molecule with its values, some of them ahead of it.
How the values were obtained:
[1] = test system: Primary hepatocyte cultures (human); experiment: Determination of triphosphate levels in cells, human primary hepatocytes; format: in vitro ADME; settings: general statement on the table of b531, 10 μM drug
Description: Freshly isolated cells from animal and human liver were obtained in suspension on ice. Following receipt, cells were pelleted by centrifugation at 500 rpm (rat) or 700 rpm (monkey and human) and resuspended at 0.8 million cells per mL of platting medium (HPM). Multi-well collagen-coated plates (12-well) were then seeded by addition of 1 mL of cell suspention (0.8 million cells/mL). The plates were gently shaken to evenly distribute the cells and placed in an incubator at 37° C. for approximately 4 to 6 hours to allow cells to attach. Once cells have attached, the platting medium was removed and replaced with hepatocyte culture medium (HCM). Cells were left overnight in an incubator at 37° C. to acclimatize to culture and the medium.
Hepatocyte incubations were conducted in a final volume of 1.0 mL HCM/well (0.8 million cells/mL). HCM from overnight incubation of cells was removed and replaced with fresh HCM, pre-warmed to 37° C., containing 10 μM test article from a stock solution in DMSO (final DMSO concentration was 0.1%). […]
Cellular extracts were prepared by transferring 0.9 mL of extract into 2 mL microfuge tubes followed by centrifugation for 5 min at 14,000 rpm. Approximately 100 μL of the supernatant was transferred to HPLC vials and triphosphate levels determined by LCMS/MS as described below. […]

[2] = test system: Primary hepatocytes (human); experiment: In vitro phosphorylation in hepatocytes (LddA-TP formation), human; format: in vitro ADME
Description: (§1) Measurements of the concentration of 2′-3′-dideoxyadenosine-5′-triphosphate (ddATP) (the triphosphate nucleotide of 2′-3′-dideoxyadenosine (ddA) are performed by liquid chromatography tandem mass spectrometry (LC/MS/MS), e.g., of methanolic extracts of hepatocytes.
(§2) The concentration of ddATP is measured by comparison to a standard curve. Working stock solutions of TP-ddA are prepared from a […] stock solution in de-ionized water of ddATP (tetrasodium salt of >91% purity) purchased from Sigma Chemical Co as follows:
(§3) HPLC is conducted on Phenomenex Luna Amino 3 μm 100 A, 30×2 mm column, with a mobile phase: A: 70% 10 mM NH4OAc 30% ACN pH 6.0; and B: 70% 1 mM NH4OAc 30% ACN pH 10.5 as follows:
(§4) Primary hepatocytes (Rat, Cynomolgus Monkey or human) were seeded at 0.8×10^6 in a collagen-coated 12-well plate and allowed to attach 4-6 hours after which time the seeding medium was replaced with serum-free culture medium and cells allowed to acclimatize to the new medium overnight. On the next day, cells were exposed for 1, 4, 8 and 24 hours to test article A550 (NM204) at 10 and 50 μM prepared in fresh culture medium from stock solution in DMSO (final DMSO concentration was 0.1%). At each time point, an aliquot (500 μl) was collected and immediately added to 500 μl of acetonitrile and stored at −20° C. until analysis. The remaining exposure medium was removed and the cell monolayer (stuck to dish) washed 2 times with ice-cold PBS. Any remaining PBS was carefully removed by aspiration and cells were harvested by scraping in 1 mL 70% ice-cold methanol. Cell samples were placed overnight at −20° C. and cellular debris removed by centrifugation on the next day. The supernatants were removed and filtered prior to analysis by LC/MS. A standard curve was prepared by using untreated cells processed similarly except that prior to harvesting in 70% methanol, 10 μl of LddATP standard solutions prepared in methanol were added to the washed monolayers. These control samples were then processed and analyzed as described for test samples.

[3] = test system: Primary hepatocytes (Cynomolgus Monkey); experiment: In vitro phosphorylation in hepatocytes (LddA-TP formation), monkey; format: in vitro ADME
Description: as §1, §2, §3, §4

[4] = In vivo studies in rat: A550 and LddATP measured in livers after IV or oral dose; settings: male rat liver
Description: Distribution of A550 (NM-204) (the compound of Example 1 (Hydroxy-tBuSATE N-benzylphosphoroamidate derivative of L-ddA) in the rat liver was evaluated following a single intravenous (I.V.) or oral administration of A550 (NM-204) at a dose of 20 (oral) or 10 (I.V.) mg/Kg body weight. The dose solutions were prepared on the same day prior to dose administration.
At the specified time point (1 and 3 hours for IV animals or 1, 3 and 8 hours for oral animals), each animal was euthanized by CO2 gas followed by exsanguination via the abdominal vein. Livers were collected immediately after sacrifice, flash frozen in liquid nitrogen, placed on dry ice, and later stored at −70° C., before being analyzed.
Control rat liver samples were taken from whole frozen livers (Bioreclamation, Inc. Hicksville, N.Y.) with the aid of a tissue coring utensil (Harris Unicore, 8.0 mm, VWR). Each ˜0.1 g sample was placed in individual 2 mL poly vials with 0.940 mL of 80% MeOH/20% DIH2O and homogenates were prepared using a mechanical tissue disruptor (Tissue Master, Omni-International, Inc, Marietta Ga.). The vials received a 10 μl aliquot of a working stock solution and a 50 μl aliquot of the ISTD before vortexing for ˜30 sec. The mixtures were stored overnight at −20° C. and the next day were removed for 10 min of centrifugation in a benchtop centrifuge. Each supernatant was transferred to individual centrifugation filtration units (0.45 μm) and the resulting filtrates were transferred to HPLC vials for the LC/MS/MS analysis. The final concentrations of ddATP in the calibration standards was 1000, 500, 250, 125, 50, and 0 pmol/ml. Each calibration standard was directly injected in a 50 μL volume onto the ion-exchange column for analysis. Standard curve analysis of calibration standards from control liver extracts was conducted.
Analysis of ddATP was done by an ion-exchange chromatography method with on-line positive ionization ESI-MS/MS detection in multiple reaction monitoring (MRM) detection mode. […] This is equivalent to a range of […] per gram liver by the sample preparation employed. The HPLC MS MS conditions described in Example 5 were utilized.

[5] = test system: Primary hepatocytes (Rat); experiment: In vitro phosphorylation in hepatocytes (LddA-TP formation), rat; format: in vitro ADME
Description: as §1, §2, §3, §4

[6] = IV dose 10 mg/kg, 1 hr, individual animals, 10 mg/kg
[7] = IV dose 10 mg/kg, 3 hrs, individual animals, 10 mg/kg
[8] = Oral dose 20 mg/kg, 1 hr, individual animals, 20 mg/kg
[9] = Oral dose 20 mg/kg, 3 hrs, Mean
[10] = Oral dose 20 mg/kg, 3 hrs, individual animals, 20 mg/kg
[11] = Oral dose 20 mg/kg, 8 hrs, Mean
[12] = Oral dose 20 mg/kg, 8 hrs, individual animals, 20 mg/kg

- levels of intracellular triphosphate as compared to those for NM107 [1]: much higher
Molecule: CC(C)(CO)C(=O)SCCOP(=O)(NCc1ccccc1)OC[C@H]1O[C@@H](n2ccc(N)nc2=O)[C@](C)(O)[C@@H]1O (mixture of isomers) [Example B102, Hydroxy-tBuSATE N-Benzylphosphoroamidate Derivative of 2′-C-methylcytidine]

Molecule: Hydroxy-tBuSATE N-benzylphosphoroamidate derivative of L-ddA [Example A550]
- LddA TP Levels ([2]; 10 μM, 1 hour): 161.5 pmol/million cells
- LddA TP Levels ([2]; 10 μM, 4 hours): 312.5 pmol/million cells
- LddA TP Levels ([2]; 10 μM, 8 hours): 352.5 pmol/million cells
- LddA TP Levels ([2]; 10 μM, 24 hours): 366.0 pmol/million cells
- LddA TP Levels ([2]; 50 μM, 1 hour): 682.5 pmol/million cells
- LddA TP Levels ([2]; 50 μM, 4 hours): 1480.0 pmol/million cells
- LddA TP Levels ([2]; 50 μM, 8 hours): 1930.0 pmol/million cells
- LddA TP Levels ([2]; 50 μM, 24 hours): 2062.5 pmol/million cells
- LddA TP Levels ([3]; 10 μM, 1 hour): 287.5 pmol/million cells
- LddA TP Levels ([3]; 10 μM, 4 hours): 978.0 pmol/million cells
- LddA TP Levels ([3]; 10 μM, 8 hours): 1230.0 pmol/million cells
- LddA TP Levels ([3]; 10 μM, 24 hours): 344.0 pmol/million cells
- LddA TP Levels ([3]; 50 μM, 1 hour): 2085.0 pmol/million cells
- LddA TP Levels ([3]; 50 μM, 4 hours): 5690.0 pmol/million cells
- LddA TP Levels ([3]; 50 μM, 8 hours): 6030.0 pmol/million cells
- LddA TP Levels ([3]; 50 μM, 24 hours): 3030.0 pmol/million cells
- Concentration Compound (Ex 1) ([4]; IV dose 10 mg/kg, 1 hr, Mean): 80.0 pmol/g liver
- Concentration. ddA-TP ([4]; IV dose 10 mg/kg, 1 hr, Mean): 1770 pmol/g liver
- Concentration. ddA-TP ([4]; IV dose 10 mg/kg, 1 hr, Mean, via hepatocellularity number): 15.5 pmol/10^6 cells
- Concentration Compound (Ex 1) [4, 6]: 85.1 pmol/g liver and 65.8 pmol/g liver and 89.1 pmol/g liver
- Concentration. ddA-TP [4, 6]: 1355 pmol/g liver and 2025 pmol/g liver and 1930 pmol/g liver
- Concentration. ddA-TP ([4]; IV dose 10 mg/kg, 1 hr, individual animals, via hepatocellularity number, 10 mg/kg): 11.9 pmol/10^6 cells and 17.8 pmol/10^6 cells and 16.9 pmol/10^6 cells
- Concentration Compound (Ex 1) ([4]; IV dose 10 mg/kg, 3 hrs, Mean): 27.9 pmol/g liver
- Concentration. ddA-TP ([4]; IV dose 10 mg/kg, 3 hrs, Mean): 2092 pmol/g liver
- Concentration. ddA-TP ([4]; IV dose 10 mg/kg, 3 hrs, Mean, via hepatocellularity number): 18.3 pmol/10^6 cells
- Concentration Compound (Ex 1) [4, 7]: 28.3 pmol/g liver and 26.0 pmol/g liver and 29.3 pmol/g liver
- Concentration. ddA-TP [4, 7]: 1345 pmol/g liver and 1940 pmol/g liver and 2990 pmol/g liver
- Concentration. ddA-TP ([4]; IV dose 10 mg/kg, 3 hrs, individual animals, via hepatocellularity number, 10 mg/kg): 11.8 pmol/10^6 cells and 17.0 pmol/10^6 cells and 26.2 pmol/10^6 cells
- Concentration Compound (Ex 1) ([4]; Oral dose 20 mg/kg, 1 hr, Mean): 251 pmol/g liver
- Concentration. ddA-TP ([4]; Oral dose 20 mg/kg, 1 hr, Mean): 395 pmol/g liver
- Concentration. ddA-TP ([4]; Oral dose 20 mg/kg, 1 hr, Mean, via hepatocellularity number): 3.5 pmol/10^6 cells
- Concentration Compound (Ex 1) [4, 8]: 411 pmol/g liver and 272 pmol/g liver and 70.2 pmol/g liver
- Concentration. ddA-TP [4, 8]: 210 pmol/g liver and 575 pmol/g liver and 400 pmol/g liver
- Concentration. ddA-TP ([4]; Oral dose 20 mg/kg, 1 hr, individual animals, via hepatocellularity number, 20 mg/kg): 1.8 pmol/10^6 cells and 5.0 pmol/10^6 cells and 3.5 pmol/10^6 cells
- Concentration Compound (Ex 1) [4, 9]: 204 pmol/g liver
- Concentration. ddA-TP [4, 9]: 312 pmol/g liver
- Concentration. ddA-TP ([4]; Oral dose 20 mg/kg, 3 hrs, Mean, via hepatocellularity number): 2.7 pmol/10^6 cells
- Concentration Compound (Ex 1) [4, 10]: 360 pmol/g liver and 92.1 pmol/g liver and 161 pmol/g liver
- Concentration. ddA-TP [4, 10]: 200 pmol/g liver and 330 pmol/g liver and 405 pmol/g liver
- Concentration. ddA-TP ([4]; Oral dose 20 mg/kg, 3 hrs, individual animals, via hepatocellularity number, 20 mg/kg): 1.8 pmol/10^6 cells and 2.9 pmol/10^6 cells and 3.6 pmol/10^6 cells
- Concentration Compound (Ex 1) [4, 11]: 20.1 pmol/g liver
- Concentration. ddA-TP [4, 11]: 382 pmol/g liver
- Concentration. ddA-TP ([4]; Oral dose 20 mg/kg, 8 hrs, Mean, via hepatocellularity number): 3.3 pmol/10^6 cells
- Concentration Compound (Ex 1) [4, 12]: 16.4 pmol/g liver and 28 pmol/g liver and 16.2 pmol/g liver
- Concentration. ddA-TP [4, 12]: 280 pmol/g liver and 805 pmol/g liver and 275 pmol/g liver
- Concentration. ddA-TP ([4]; Oral dose 20 mg/kg, 8 hrs, individual animals, via hepatocellularity number, 20 mg/kg): 2.5 pmol/10^6 cells and 5.2 pmol/10^6 cells and 2.4 pmol/10^6 cells
- LddA TP Levels ([5]; 10 μM, 1 hour): 159.5 pmol/million cells
- LddA TP Levels ([5]; 10 μM, 4 hours): 388.0 pmol/million cells
- LddA TP Levels ([5]; 10 μM, 8 hours): 468.5 pmol/million cells
- LddA TP Levels ([5]; 10 μM, 24 hours): 422.0 pmol/million cells
- LddA TP Levels ([5]; 50 μM, 1 hour): 393.0 pmol/million cells
- LddA TP Levels ([5]; 50 μM, 4 hours): 1212.0 pmol/million cells
- LddA TP Levels ([5]; 50 μM, 8 hours): 1590.0 pmol/million cells
- LddA TP Levels ([5]; 50 μM, 24 hours): 1505.0 pmol/million cells

— patent US20080261913A1, “Compounds and pharmaceutical compositions for the treatment of liver disorders” (Idenix Pharmaceuticals, Inc., priority 2006, published 2008)
